Measured values: patent US20070292895A1, “Assays and methods to detect beta-secretase and its activity in body fluids and tissue extracts” (priority 2006, published 2007)
Values belong to the compound of their own block, whether it stands above or below them. Non-standard residues stand in square brackets, D forms with d. Residues, ends and D or L forms follow the SMILES beside them. *: point of attachment. Sta = CC(C)C[C@H](N)[C@@H](O)CC(=O)O; Isovaleryl = CC(C)CC(=O)*

Columns and labels:
BACE-1 activity in CSF = test: CSF BACE-1 activity with combinations of protease inhibitors (FIG. 9); format: biochemical; settings: Merck-3 at 10 μM; Pepstatin A 10 μM present
Description: (§1) This example illustrates a method for solution based detection of BACE-1 activity in cerebral spinal fluid (CSF). BACE-1 enzymatic activity in CSF was measured using a two-step method. In the first step, cleavage of a biotinylated peptide substrate is accomplished using CSF as the source of BACE-1 enzyme. In the second step, the extent of enzymatic cleavage of substrate is detected using an avidin-biotin complex and enzyme linked immunosorbent assay (ELISA).
(§2) In the peptide substrate cleavage step, 25 μL of either purified recombinant baculovirus expressed BACE-1(aa1-460) at a range of concentration from 0.8 pM to 100 pM or rhesus or human CSF is added to the wells of a 96 well assay plate (COSTAR brand, Cat#3365). […]
(§3) In the second step, the product of BACE-1 enzymatic cleavage of the biotin-labeled peptide is measured by ELISA. […]
(§4) Afterwards, the plate is washed three times with PBST. […] The reaction is finally developed using 100 μL/well of CDP-STAR ready-to-use with HRP substrate (EMD Biosciences, Inc. San Diego, Calif.) or SAPPHIRE-II Enhancer substrate (Applied Biosystems, Foster City, Calif., Cat# T2214) for 30 minutes at room temperature. Absorbance or Luminescence counts, respectively, are measured in LJL-Analyst (Molecular Devices Corp., Sunnyvale, Calif.). […]

[1] = test system: non-specific aspartyl protease activity; test: Non-specific aspartyl protease activity in brain membrane preparations, same HPLC cleavage assay; format: biochemical, mouse; settings: membrane preparations from WT mice
Description: (§5) Brain BACE-1 enzymatic activity was measured using brain membrane extracts in a two-step method. In the first reaction step, a brain membrane extract containing endogenous BACE-1 is reacted with a coumarin labeled 10-mer peptide substrate in the presence of non-specific protease inhibitor cocktail and aspartyl protease inhibitor Pepstatin A. In a second detection step, an HPLC-based detection method is used to determine the extent of enzymatic cleavage of the 10-mer substrate.
(§6) Brain membranes are prepared as follows. Mice brain sections are homogenized in 10× w/v 50 mM MES buffer with protease inhibitor (Roche Applied Science, Indianapolis, Ind., Cat#11836145), pH 6.0 using a glass/Teflon homogenizer, using about 10 strokes. The homogenates are then spun at 2000 rpm (900×g) at 4° C. for 10 minutes. […] Protein concentration is determined using modified Bradford method (DC protein assay kit Cat#500-0114, Bio-Rad Laboratories, Hercules, Calif.). […]
(§7) In the second step, the BACE-1 cleavage product is detected. The resulting mixture is then chromatographed in a Waters Alliance HT HPLC system (Waters 2790, Waters Corporation, Milford, Mass.) to detect product and substrate fluorescence as follows. […]
(§8) The amount of cleaved product and substrate are detected with excitation at 340 nm and emission at 440 nm.

[2] = test system: non-specific aspartyl protease activity; test: Non-specific aspartyl protease activity in CSF (FIG. 9); format: biochemical; settings: Pepstatin A 10 μM; this activity was about 59% of the protease activity in CSF
Description: as §1, §2, §3, §4

BACE-1 = molecular target: T1, BACE-1 (Mus musculus, UniProt P56818); test: Brain BACE-1 activity assay, brain membrane extract, coumarin-labeled 10-mer substrate, HPLC detection; format: biochemical; settings: E64 at 10 μM; membrane preparations from WT mice
T1 construct: a brain membrane extract containing endogenous BACE-1; from tissue; host or cells: mouse brain membrane preparation (wild-type mice)
T1 sequence (P56818 46-501): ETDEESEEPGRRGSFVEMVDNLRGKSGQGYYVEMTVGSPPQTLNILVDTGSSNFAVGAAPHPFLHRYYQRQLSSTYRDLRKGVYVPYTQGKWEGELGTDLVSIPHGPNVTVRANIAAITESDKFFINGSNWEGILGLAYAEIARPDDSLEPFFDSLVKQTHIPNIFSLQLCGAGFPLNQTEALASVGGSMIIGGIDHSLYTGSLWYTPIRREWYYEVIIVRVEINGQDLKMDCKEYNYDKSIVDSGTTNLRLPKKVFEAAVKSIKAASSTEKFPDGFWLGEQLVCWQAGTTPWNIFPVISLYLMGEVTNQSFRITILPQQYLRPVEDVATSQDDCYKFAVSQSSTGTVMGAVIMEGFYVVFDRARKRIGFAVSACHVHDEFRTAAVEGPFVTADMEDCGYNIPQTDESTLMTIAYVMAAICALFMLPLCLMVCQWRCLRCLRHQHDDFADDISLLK
Description: as §5, §6, §7, §8

SMILES: C[C@@H](NC(=O)c1cc(C(=O)N[C@@H](Cc2ccccc2)[C@H](O)CNC2CC2)cc(N(C)S(C)(=O)=O)c1)c1ccccc1 [Merck-3]
BACE-1 activity in CSF remaining after Pepstatin A (FIG. 9) (BACE-1 activity in CSF): completely abolished

SMILES: CC(C)CC(=O)N[C@H](C(=O)N[C@H](C(=O)N[C@@H](CC(C)C)[C@@H](O)CC(=O)N[C@@H](C)C(=O)N[C@@H](CC(C)C)[C@@H](O)CC(=O)O)C(C)C)C(C)C [Pepstatin A, pepstatin A] (Isovaleryl-VV[Sta]A[Sta]-OH)
non-specific aspartyl protease activity (FIG. 4) [1]: abolished
non-specific aspartyl protease activity in CSF (FIG. 9) [2]: abolished

effect on cleavage of substrate (FIG. 4) (BACE-1): no effect on cleavage of substrate
SMILES: CC(C)C[C@H](NC(=O)[C@H]1O[C@@H]1C(=O)O)C(=O)NCCCCN=C(N)N [E64]
